Measurements taken from the NIST ThermoML archive (doi:10.1016/j.jct.2017.03.022).
± gives the expanded uncertainty stated by the source.

What was measured:
[1] = xn = mol fraction of the nth substance listed; conditions: 101 kPa, Liquid; for speed of sound: Frequency=3 MHz, Single path-length method; for mass density: Vibrating tube method
[2] = 101 kPa, Liquid, Vibrating tube method

CC(O)CO (stereo not given) [1,2-propanediol] + O=C1CCCN1
[1], x2 = 0
Conditions | mass density [kg/m3] | speed of sound [m/s]
303.15 K | 1028.94 ± 1 | 1496.6 ± 1.3
308.15 K | 1025.2 ± 1 | 1482.6 ± 1.3
313.15 K | 1021.43 ± 1 | 1468.5 ± 1.3
318.15 K | 1017.63 ± 1 | 1454.3 ± 1.3
323.15 K | 1013.79 ± 1 | 1440.1 ± 1.3

O=C1CCCN1 [2-pyrrolidinone] + OCCCO
[1], x1 = 1
Conditions | mass density [kg/m3] | speed of sound [m/s]
303.15 K | 1103.07 ± 1 | 1617.7 ± 1.2
308.15 K | 1098.99 ± 1 | 1601.3 ± 1.2
313.15 K | 1094.9 ± 1 | 1585.4 ± 1.2
318.15 K | 1090.82 ± 1 | 1570.4 ± 1.2
323.15 K | 1086.75 ± 1 | 1553.5 ± 1.2

OCCCO [propan-1,3-diol]
[2]
Conditions | mass density [kg/m3]
303.15 K | 1046.56 ± 1
308.15 K | 1043.43 ± 1
313.15 K | 1040.28 ± 1
318.15 K | 1037.11 ± 1
323.15 K | 1033.92 ± 1
